Source: US9434687B2, “Detection of synthetic cannabinoids” (priority 2011, dated 2016)
Read-outs that look alike come from different tables or passages of the source.

Tests used:
Assay type in all cases: binding, sheep
[1] = tested on: IgG fraction of antiserum raised to Immunogen I
How it was run: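 Plates were coated with the IgG fraction of sheep antiserum raised to Immunogen I and incubated with standards (JWH-018, 0-40 ng/ml) plus hapten-HRP conjugate for 1 h at 25° C. Detection used TMB, read at 450 nm. IC50 was taken from a 4-parameter fit as the concentration giving half the zero-standard OD.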

[2] = tested on: IgG fraction of antiserum raised to Immunogen VII; conditions: Antibody to Immunogen VII; cross-reactants at 100 ng/ml; 1000 ng/ml; standard JWH-015
[3] = tested on: IgG fraction of antiserum raised to Immunogen IV
[4] = tested on: IgG fraction of antiserum raised to Immunogen VIII
[5] = Antibody to Immunogen I, cross-reactants at 100 ng/ml, 1000 ng/ml, standard JWH-018
[6] = Antibody to Immunogen IV, cross-reactants at 100 ng/ml, 1000 ng/ml, standard JWH-018
[7] = Antibody to Immunogen VIII, cross-reactants at 100 ng/ml, 1000 ng/ml, standard JWH-018

Compound: CCCCCn1cc(C(=O)c2cccc3ccccc23)c2c(O)cccc21 [4-OH JWH-018, JWH-018 4-hydroxyindole metabolite]
- % B/B0 [1, 5]: 46.39%
- % B/B0 [2]: 89.96%
- % B/B0 [3, 6]: 20.42%
- % B/B0 [4, 7]: 16.72%

Compound: CCCCCn1cc(C(=O)c2cccc3ccccc23)c2cc(O)ccc21 [5-OH JWH-018, JWH-018 5-hydroxyindole metabolite]
- % B/B0 [1, 5]: 11.79%
- % B/B0 [2]: 85.76%
- % B/B0 [3, 6]: 78.56%
- % B/B0 [4, 7]: 87.67%

Compound: CCCCCn1cc(C(=O)c2cccc3ccccc23)c2ccc(O)cc21 [6-OH JWH-018, JWH-018 6-hydroxyindole metabolite]
- % B/B0 [1, 5]: 8.07%
- % B/B0 [2]: 68.17%
- % B/B0 [3, 6]: 51.00%
- % B/B0 [4, 7]: 89.86%

Compound: O=C(c1cccc2ccccc12)c1cn(CCCCCF)c2ccccc12 [AM-2201, 1-(5-Fluoropentyl)indol-3-yl (1-naphthyl) methanone]
- % B/B0 [1, 5]: 3.72%
- % B/B0 [2]: 55.28%
- % B/B0 [3, 6]: 6.20%
- % B/B0 [4, 7]: 16.74%

Compound: O=C(c1cccc2ccccc12)c1cn(CCCCCO)c2ccccc12 [JWH-018 N-(5-hydroxypentyl) metabolite]
- % B/B0 [1, 5]: 3.50%
- % B/B0 [2]: 53.32%
- % B/B0 [3, 6]: 78.42%
- % B/B0 [4, 7]: 57.37%

Compound: O=C(O)CCCCn1cc(C(=O)c2cccc3ccccc23)c2ccccc21 [JWH-018 N-pentanoic acid metabolite]
- % B/B0 [1, 5]: 4.51%
- % B/B0 [2]: 53.02%
- % B/B0 [3, 6]: 99.89%
- % B/B0 [4, 7]: 100.31%

Compound: CCCCCn1cc(C(=O)c2cccc3ccccc23)c2ccccc21 [JWH-018]
- % B/B0 [1, 5]: 5.19%
- % B/B0 ([1]; JWH-018 0.625 ng/ml): 77%
- % B/B0 ([1]; JWH-018 1.25 ng/ml): 62%
- % B/B0 ([1]; JWH-018 2.5 ng/ml): 44%
- % B/B0 ([1]; JWH-018 5 ng/ml): 31%
- % B/B0 ([1]; JWH-018 10 ng/ml): 20%
- % B/B0 ([1]; JWH-018 20 ng/ml): 14%
- % B/B0 ([1]; JWH-018 40 ng/ml): 9%
- IC50 ([1]; Table 7 standard curve, standard concentration which produces 50% B/B0): 2.016 ng/mL
- % B/B0 [2]: 67.66%
- % B/B0 [3, 6]: 6.80%
- % B/B0 ([3]; JWH-018 1.25 ng/ml): 87%
- % B/B0 ([3]; JWH-018 2.5 ng/ml): 68%
- % B/B0 ([3]; JWH-018 5 ng/ml): 42%
- % B/B0 ([3]; JWH-018 10 ng/ml): 26%
- % B/B0 ([3]; JWH-018 20 ng/ml): 16%
- % B/B0 ([3]; JWH-018 40 ng/ml): 10%
- % B/B0 ([3]; JWH-018 80 ng/ml): 7%
- IC50 ([3]; Table 8 standard curve, standard concentration which produces 50% B/B0): 4.133 ng/mL
- % B/B0 [4, 7]: 17.66%
- % B/B0 ([4]; JWH-018 1 ng/ml): 79%
- % B/B0 ([4]; JWH-018 3 ng/ml): 63%
- % B/B0 ([4]; JWH-018 5 ng/ml): 51%
- % B/B0 ([4]; JWH-018 10 ng/ml): 40%
- % B/B0 ([4]; JWH-018 20 ng/ml): 29%
- % B/B0 ([4]; JWH-018 40 ng/ml): 22%
- % B/B0 ([4]; JWH-018 80 ng/ml): 16%
- IC50 ([4]; Table 9 standard curve, standard concentration which produces 50% B/B0): 5.230 ng/mL

Compound: CCCCn1cc(C(=O)c2cccc3ccccc23)c2ccccc21 [JWH-073]
- % B/B0 [1, 5]: 3.56%
- % B/B0 [2]: 58.34%
- % B/B0 [3, 6]: 13.63%
- % B/B0 [4, 7]: 25.50%

Compound: O=C(c1cccc2ccccc12)c1cn(CCN2CCOCC2)c2ccccc12 [JWH-200]
- % B/B0 [1, 5]: 3.51%
- % B/B0 [2]: 42.85%
- % B/B0 [3, 6]: 77.08%
- % B/B0 [4, 7]: 98.81%

Compound: CCCCCn1cc(C(=O)c2ccc(Cl)c3ccccc23)c2ccccc21 [JWH-398]
- % B/B0 [1, 5]: 60.31%
- % B/B0 [2]: 94.47%
- % B/B0 [3, 6]: 6.00%
- % B/B0 [4, 7]: 18.66%

Compound: O=C(c1cccc2ccccc12)c1c[nH]c2ccccc12 [N-desalkyl JWH-018, 3-(1-naphthoyl)-1H-Indole]
- % B/B0 [1, 5]: 15.63%
- % B/B0 [2]: 80.08%
- % B/B0 [3, 6]: 95.55%
- % B/B0 [4, 7]: 90.49%
